Residues, ends and D or L forms follow the SMILES beside them.
Assays:
[1] = Cell viability in HepG2-2.2.15 cells (dye uptake) of the HBV assay; conditions: human
Streptococcus pneumoniae = type: cell-based; conditions: 5 micrograms per ml
MRSA = conditions: 5 micrograms per ml
in vitro [2] = conditions: human, CEM-SS cells
in vitro [3] = conditions: human, MRC-5 cells (human embryonal lung fibroblasts)
Pseudomonas aeruginosa = type: cell-based; conditions: 5 micrograms per ml
HIV-1IIIB = assay: HIV-1 antiviral assay (CPE reduction, MTS); type: cell-based; conditions: peptide 10 micrograms per ml, 6 days post-infection
HCMV strain AD169 = assay: HCMV plaque reduction assay; type: cell-based; conditions: HCMV AD169 in MRC-5 cells; peptide 10 micrograms per ml; 7-10 days
From the text: Ganciclovir was used as positive control.

C[C@@H](O)[C@H](N)C(=O)N[C@@H](CC(=O)O)C(=O)N[C@H](C(=O)N[C@@H](CO)C(=O)N[C@@H](Cc1c[nH]cn1)C(=O)N[C@@H](Cc1c[nH]cn1)C(=O)N[C@@H](CC(=O)O)C(=O)N[C@@H](CCC(N)=O)C(=O)N[C@@H](CC(=O)O)C(=O)N[C@@H](Cc1c[nH]cn1)C(=O)N1CCC[C@H]1C(=O)N[C@H](C(=O)N[C@@H](Cc1ccccc1)C(=O)N[C@@H](CC(N)=O)C(=O)O)[C@@H](C)O)[C@@H](C)O [FGRP, Thr-Asp-Thr-Ser-His-His-Asp-Gln-Asp-His-Pro-Thr-Phe-Asn-OH] (H-TDTSHHDQDHPTFN-OH)
viability at 144 h, 10 micrograms per ml [1]: 100% | % inhibition (Streptococcus pneumoniae): 100.0% | % inhibition (MRSA): 0.0% | viability at 10 micrograms per ml (in vitro [2]): 100% | viability at 144 h (in vitro [3]): 100% | % inhibition (Pseudomonas aeruginosa): 0.0%

Cc1cn([C@H]2C[C@H](N=[N+]=[N-])[C@@H](CO)O2)c(=O)[nH]c1=O [AZT]
% CPE reduction in HIV-1 infected CEM-SS cells (HIV-1IIIB): 99%

Nc1nc(O)c2ncn(COC(CO)CO)c2n1 [Ganciclovir]
% plaque reduction (HCMV strain AD169): 100%

Source: patent US20100197602A1, “USE OF FOLLICULAR GONADOTROPIN RELEASING PEPTIDE AS A THERAPEUTIC AGENT IN THE TREATMENT OF STREPTOCOCCUS PNEUMONIAE INFECTION” (priority 2007, published 2010)
